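Results reflect a 48-hour exposure of cells in 96-well plates to compound at five concentrations. GI50: concentration for 50% inhibition of growth.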 The source made the active and inactive calls. No stated cut-off is given here; in the data, active = GI50 up to about 1.1 µM and inactive = higher. Starred links: 1 amine or outer side, 2 acyl side, 3 side chain; linkers in the order of their positions; H or OH if unused. Non-standard residues stand in square brackets, D forms with d. Residues, ends and D or L forms follow the SMILES beside them. X35 = C=CCC(O[*:1])C(=O)[*:2]; NMeV = CN[CH](C(=O)O)C(C)C; NMeA = CN[CH](C)C(=O)O; βAla = NCCC(=O)O
Columns and labels:
Experiment in all cases: NCI tumour cell line growth inhibition, 48 h
A549 = system: A549
COLO 205 = system: COLO 205
HCC 2998 = system: HCC 2998
HCT-116 = system: HCT-116
HOP-62 = system: HOP-62
M14 = system: M14
MCF7 = system: MCF7
MDA-MB-435 = system: MDA-MB-435
NCI-H23 = system: NCI-H23
SF-268 = system: SF-268
SF-295 = system: SF-295
SK-MEL-28 = system: SK-MEL-28
SK-OV-3 = system: SK-OV-3
SN12C = system: SN12C
SNB-19 = system: SNB-19
SW-620 = system: SW-620
TK-10 = system: TK-10
UACC-257 = system: UACC-257
UO-31 = system: UO-31
KM12 = system: KM12

SMILES | GI50 (A549) | GI50 (COLO 205) | GI50 (HCC 2998) | GI50 (HCT-116) | GI50 (HOP-62) | GI50 (M14) | GI50 (MCF7) | GI50 (MDA-MB-435) | GI50 (NCI-H23) | GI50 (SF-268) | GI50 (SF-295) | GI50 (SK-MEL-28) | GI50 (SK-OV-3) | GI50 (SN12C) | GI50 (SNB-19) | GI50 (SW-620) | GI50 (TK-10) | GI50 (UACC-257) | GI50 (UO-31) | GI50 (KM12)
CC(C)[C@H]1C(=O)O[B@-](F)(c2ccccc2)/[N+]1=C\N(C)C | > 100 µM (inactive) | > 100 µM (inactive) | > 100 µM (inactive) | > 100 µM (inactive) | > 100 µM (inactive) | > 100 µM (inactive) | > 100 µM (inactive) | > 100 µM (inactive) | > 100 µM (inactive) | > 100 µM (inactive) | > 100 µM (inactive) | > 100 µM (inactive) | > 100 µM (inactive) | > 100 µM (inactive) | > 100 µM (inactive) | > 100 µM (inactive) | > 100 µM (inactive) | > 100 µM (inactive) | > 100 µM (inactive) | 
CCOC(=O)C(C(=O)OCC)=C1SC(=N\c2ccccc2)/C(=N/c2ccccc2)N1c1ccccc1 | > 100 µM (inactive) | > 100 µM (inactive) | 45.8 µM (inactive) | > 100 µM (inactive) | 34.2 µM (inactive) |  | 75.3 µM (inactive) | > 100 µM (inactive) | > 100 µM (inactive) | 48.3 µM (inactive) | 27 µM (inactive) | > 100 µM (inactive) | > 100 µM (inactive) | > 100 µM (inactive) | > 100 µM (inactive) |  |  |  | > 100 µM (inactive) | > 100 µM (inactive)
C=CCC1OC(=O)CCNC(=O)C(C)N(C)C(=O)C(C(C)C)N(C)C(=O)C(C(C)CC)NC(=O)C2CCCN2C1=O (stereo not drawn) (cyclo([X35]PI[NMeV][NMeA][βAla]); configuration not given here) | 9.84 µM (inactive) | > 100 µM (inactive) | 2.25 µM (inactive) | 3.68 µM (inactive) | 10.2 µM (inactive) | 30.5 µM (inactive) | > 100 µM (inactive) | 4.22 µM (inactive) | 33.2 µM (inactive) | 81.1 µM (inactive) | 4.08 µM (inactive) | 42.7 µM (inactive) |  | > 100 µM (inactive) | > 100 µM (inactive) | 6.64 µM (inactive) | > 100 µM (inactive) | 9.44 µM (inactive) | 22.8 µM (inactive) | 10.8 µM (inactive)
O=C1/C(=C/c2ccc(Cl)cc2)CCC1CNc1ccc(Cl)cc1 (stereo not drawn) | 7.8 µM (inactive) | 2.46 µM (inactive) | 6.01 µM (inactive) | 4.73 µM (inactive) | 19.9 µM (inactive) | 2.37 µM (inactive) | 1.29 µM (inactive) | 15.1 µM (inactive) | 10.3 µM (inactive) | 7.4 µM (inactive) | 6.79 µM (inactive) | 15.6 µM (inactive) |  | 10.2 µM (inactive) | 14.7 µM (inactive) | 2.03 µM (inactive) | 5.11 µM (inactive) | 13.8 µM (inactive) | 5.35 µM (inactive) | 1.29 µM (inactive)
CCOC(=O)C(=CN1CCNC1=S)C(=O)OCC | > 100 µM (inactive) | > 100 µM (inactive) | > 100 µM (inactive) | > 100 µM (inactive) | > 100 µM (inactive) | > 100 µM (inactive) | > 100 µM (inactive) | > 100 µM (inactive) | > 100 µM (inactive) |  | > 100 µM (inactive) | > 100 µM (inactive) | > 100 µM (inactive) | > 100 µM (inactive) |  | > 100 µM (inactive) |  | > 100 µM (inactive) |  | 
CC1(C)CC(=O)C(=CNc2nc(-c3ccc(Br)cc3)cs2)C(=O)C1 | 51.4 µM (inactive) | 31.2 µM (inactive) | 28.9 µM (inactive) | 26.5 µM (inactive) | 31.3 µM (inactive) | 20.5 µM (inactive) | 32.6 µM (inactive) | 25.6 µM (inactive) | 25.8 µM (inactive) |  | 39 µM (inactive) | 34 µM (inactive) | 83 µM (inactive) | 39.7 µM (inactive) | 33.5 µM (inactive) | 42.9 µM (inactive) | 11.5 µM (inactive) | 18.5 µM (inactive) | 21.9 µM (inactive) | 34 µM (inactive)
COC(=O)NCCc1n[nH]c2c1C(=O)C=C(Nc1ccccc1)C2=O | 36.7 µM (inactive) | 16.8 µM (inactive) | 38.2 µM (inactive) | 21.7 µM (inactive) | 68.2 µM (inactive) | 33.4 µM (inactive) | 15.5 µM (inactive) | 17 µM (inactive) | 15.1 µM (inactive) | 26 µM (inactive) | 30.3 µM (inactive) |  | 74.6 µM (inactive) | 34.8 µM (inactive) | 28 µM (inactive) | 25.6 µM (inactive) | > 100 µM (inactive) | 16.7 µM (inactive) | 35.3 µM (inactive) | 18.4 µM (inactive)
COc1ccc(O)c(/C=N\Nc2ccccc2)c1 | 6.22 µM (inactive) | 10.6 µM (inactive) | < 0.01 µM (active) | 22.6 µM (inactive) | 44.7 µM (inactive) | 19 µM (inactive) | 14.8 µM (inactive) | 3.67 µM (inactive) | 10.3 µM (inactive) | 13.1 µM (inactive) |  | 25.4 µM (inactive) | > 100 µM (inactive) | 29.6 µM (inactive) | 30.8 µM (inactive) | 5.41 µM (inactive) |  | 16.7 µM (inactive) | 4.14 µM (inactive) | 
N#C/C(C(=S)Nc1ccccc1)=C(/N)N1CCCC1 | > 100 µM (inactive) | > 100 µM (inactive) | > 100 µM (inactive) | > 100 µM (inactive) | > 100 µM (inactive) | > 100 µM (inactive) | > 100 µM (inactive) | > 100 µM (inactive) | > 100 µM (inactive) | > 100 µM (inactive) | > 100 µM (inactive) | > 100 µM (inactive) |  | > 100 µM (inactive) | > 100 µM (inactive) | > 100 µM (inactive) | > 100 µM (inactive) | > 100 µM (inactive) | 46.7 µM (inactive) | > 100 µM (inactive)
Cc1nc2c(Br)cc(Br)cc2c(=O)n1-c1ccccc1N | 33.5 µM (inactive) | 20.7 µM (inactive) | 35.6 µM (inactive) | 23.4 µM (inactive) | 70.5 µM (inactive) | 35.4 µM (inactive) | 38.9 µM (inactive) | 39.4 µM (inactive) |  | 50.1 µM (inactive) | 53 µM (inactive) | 44.4 µM (inactive) | 33 µM (inactive) | 29.9 µM (inactive) | 48.2 µM (inactive) | 44.6 µM (inactive) |  | 31 µM (inactive) | 20.5 µM (inactive) | 51.5 µM (inactive)
O=c1[nH]c2[nH]c(-c3ccc(Br)cc3)cc2c2ccccc12 |  | 34.7 µM (inactive) | > 100 µM (inactive) | 43.2 µM (inactive) | 22.1 µM (inactive) |  | > 100 µM (inactive) | > 100 µM (inactive) | > 100 µM (inactive) | 86.9 µM (inactive) | 70 µM (inactive) | > 100 µM (inactive) |  | 41.4 µM (inactive) | 29.4 µM (inactive) | > 100 µM (inactive) | 52 µM (inactive) | > 100 µM (inactive) | > 100 µM (inactive) | > 100 µM (inactive)
O=S(=O)(c1ccc(-c2nnc(-c3ccc(F)cc3)o2)cc1)c1ccc(-c2nnc(-c3ccc(F)cc3)o2)cc1 | > 100 µM (inactive) | > 100 µM (inactive) | > 100 µM (inactive) | > 100 µM (inactive) | 27 µM (inactive) | > 100 µM (inactive) | > 100 µM (inactive) | > 100 µM (inactive) | > 100 µM (inactive) | > 100 µM (inactive) | 55.3 µM (inactive) |  | 30.4 µM (inactive) | > 100 µM (inactive) | 34.6 µM (inactive) | > 100 µM (inactive) |  | > 100 µM (inactive) | > 100 µM (inactive) | > 100 µM (inactive)
CC1=C2CN(C(=O)OCC(C)C)CCC2C2=C(C(=O)c3ccccc3C2=O)C1C (stereo not drawn) | > 10 µM (inactive) | > 10 µM (inactive) | > 10 µM (inactive) |  | > 10 µM (inactive) | > 10 µM (inactive) | > 10 µM (inactive) | > 10 µM (inactive) | 6.53 µM (inactive) | > 10 µM (inactive) | > 10 µM (inactive) | > 10 µM (inactive) | > 10 µM (inactive) | > 10 µM (inactive) |  | > 10 µM (inactive) | > 10 µM (inactive) | > 10 µM (inactive) |  | > 10 µM (inactive)
O=C(Nc1ccc(Cl)cc1)c1cc2c(cc1Cl)Sc1nccn1S2(=O)=O | > 100 µM (inactive) | > 100 µM (inactive) | 76.7 µM (inactive) | 34.6 µM (inactive) | 33.7 µM (inactive) | > 100 µM (inactive) | 69.3 µM (inactive) | 4.42 µM (inactive) |  | 27.5 µM (inactive) | 29.2 µM (inactive) | 40.5 µM (inactive) | 64 µM (inactive) | 49.7 µM (inactive) | 44.4 µM (inactive) | 27.5 µM (inactive) |  |  |  | > 100 µM (inactive)
COc1c(-c2ccccc2)oc2c(CP(=O)(OC)OC)cccc2c1=O | > 100 µM (inactive) | > 100 µM (inactive) | > 100 µM (inactive) | > 100 µM (inactive) | > 100 µM (inactive) | > 100 µM (inactive) | > 100 µM (inactive) | > 100 µM (inactive) | 68.2 µM (inactive) |  | > 100 µM (inactive) |  | > 100 µM (inactive) | > 100 µM (inactive) |  |  | > 100 µM (inactive) | > 100 µM (inactive) | 11.7 µM (inactive) | 
